Measurements reported in patent publication US8772029B2, “Modulation of oocyte meiotic progression and oocyte activation” (Northwestern University, priority 2011, dated 2014).
“Also recorded” adds a separate entry of the source.

Key:
GV oocytes = assay: TPEN treatment of PDE-inhibitor arrested GV oocytes; type: cell-based
Source text: In certain embodiments, zinc modulation is useful for overcoming earlier meiotic arrests. Normally, treatment of GV stage oocytes with broad-spectrum or PDE3-specific phosphodiesterase (PDE) inhibitors results in maintenance of GV arrest due to elevated cAMP levels. […] As such, limiting zinc availability could also be used to overcome GV arrest and allow progression through GVBD in clinical cases of GV arrest. The methods of the present invention are also useful as a secondary treatment for oocytes that remain GV arrested following conventional in vitro maturation, and could be of particular value for use in conjunction with in vitro follicle culture systems currently being developed for use in fertility preservation programs for patients undergoing fertility-threatening cancer treatments, in which methods for overcoming GV arrest are necessary (Xu et al 2006).

MAPK = assay: Myelin basic protein (MBP) kinase assay on single eggs (MAPK activity); type: cell-based, mouse; details: in vivo ovulated MII eggs, KSOM with 10 μM TPEN, 1 to 8 hours
Protocol: (§1) Histone H1 and myelin basic protein (MBP) dual kinase assays were performed as previously described (Svoboda et al., 2000). Dried gels were exposed to Kodak BIOMAX MR films for 12 to 72 hours at −80° C. using Kodak intensifying screens; films were developed, scanned, and analyzed using ImageJ software. Assays were performed on single oocytes, and densitometric analysis is expressed relative to levels in control eggs.

MII eggs = details: literature (Kim et al 2011, Suzuki et al 2010); cited from earlier work
CCNB1 = assay: Western blot for CCNB1 in oocytes; type: cell-based, mouse; details: oocytes cultured with 10 μM TPEN during the MI-MII transition
Protocol: Western blotting was performed essentially as previously described (Bernhardt et al., 2010). Briefly, 15 to 50 cumulus-denuded oocytes were transferred in a minimal amount of medium to microcentrifuge tubes and immediately lysed in 8 μL of 1x SDSPAGE Sample Buffer (Laemmli, 1970). SDS-PAGE gels were run using the Invitrogen NuPAGE system and transferred to Immobilon-P PVDF membranes (Millipore, Billerica, MA). Blocking and antibody incubations were in 2% w/v ECL Advanced Blocking Reagent (Amersham) in TBS-T (20mM Tris, pH7.4, 137mM NaC1, 0.1% Tween20 v/v). Anti-CCNB1antibody was diluted 1:500, anti-FBXO43 was used at 1:1000 dilution, and anti-tubulin antibody was used at 1:10,000. HRP-conjugated secondary antibodies were diluted 1:10,000. Detection was performed using Amersham ECL Advanced detection reagent. BIOMAX MR films (Kodak, Rochester, NY) were exposed and developed, or an Alpha-Innotech (San Learndo, CA) MultiImage II system was used.

MPF activity = assay: Histone H1 kinase assay on single oocytes/eggs (MPF activity); type: cell-based, mouse
Protocol: as §1

oocytes = assay: Spindle phenotype scoring after in vitro maturation (IVM) with TPEN, MI-MII transition; type: cell-based, mouse
Protocol: For IVM studies, immature female CD1 mice (17 to 21 day old) were injected with 5IU equine chorionic gonadotropin (eCG) (Calbiochem, La Jolla, CA) in 100 μL sterile phosphate-buffered saline (PBS), intraperitoneally. After 44 to 48 hours, mice were anesthetized using isoflurane and euthanized by cervical dislocation. Dissected ovaries were placed in Leibovitz L-15 medium containing 1% FBS (L-15/FBS) and 0.2mM 3-isobutyl-1-methylxanthine (IBMX), and large antral follicles were punctured using 28 gauge needles to release cumulus oocyte complexes (COCs). COCs were washed through several drops of culture medium consisting of Minimum Essential Medium (MEM)-alpha with GLUTAMAX supplemented with 10% FBS, 1.5IU/mL human chorionic gonadotropin (hCG), and 5ng/mL epidermal growth factor and placed in culture medium with or without 10 μM N,N,N′,N′-tetrakis(2-pyridylmethyl) ethylenediamine (TPEN). In some experiments Z-Leu-Leu-Leu-al (MG132) was added to culture medium at 20 μM. COCs were cultured in drops of pre-equilibrated medium covered with embryo quality mineral oil at 37° C. in 5% CO2 with a humid environment. Ovulated MII eggs were collected from 4 to 6 week old mice primed with 5IU PMSG followed 48 h later by 5IU hCG. Oviducts were dissected into L-15/FBS, and eggs were removed and treated with 0.03% (w/v) hyaluronidase to remove cumulus cells. Eggs were washed and cultured in potassium simplex optimized medium (KSOM) (Millipore, Billerica, MA) covered with embryo quality mineral oil at 37° C. in 5% CO2.
Oocytes were denuded of cumulus cells and fixed in a microtubule stabilizing buffer (Ibanez et al., 2005) containing 2% formaldehyde and 1% Triton X-100 for 30 min at 37° C. Oocytes were washed and blocked in PBS containing 0.1M glycine, 3mg/mL BSA, 0.01% Tween 20, and 0.01% sodium azide for at least 1 h and were stored in blocking solution at 4° C. for up to 2 weeks. Oocytes were incubated with anti-tubulin antibody (1:100) for 1 h at 37C. followed by three washes in blocking solution. They were then incubated for 1 h in AlexaFluor-488 conjugated anti-mouse secondary antibody (5μg/mL) and rhodamine-phalloidin (2U/mL), washed three additional times, and mounted in VECTASHIELD with DAPI. Microscopy was performed using a Leica SP5 inverted laser-scanning confocal microscope with a 63x oil immersion objective (Leica Microsystems, Heidelberg, Germany). Images were processed using LAS AF software (Leica Microsystems). […]
Oocytes treated with TPEN during the MI-MII transition fail to enter MII. Following IVM under the conditions listed in control (C) or TPEN-containing (T) medium, oocytes were stained and imaged, and their spindle phenotypes were scored.

[1] = COCs in control medium 7.5 h, then 10 μM TPEN 6.5 h, n=42
[2] = COCs in control medium 7.5 h, then 10 μM TPEN 6.5 h, n=42, listed as T

In the case of c1ccc(CN(CCN(Cc2ccccn2)Cc2ccccn2)Cc2ccccn2)nc1 [TPEN, N,N,N′,N′-tetrakis(2-pyridylmethyl)ethylenediamine], the “progression to MII after transfer back to zinc replete medium” value (GV oocytes; PDE-inhibitor arrested GV oocytes that resumed meiosis under TPEN) is reported as “a proportion of these oocytes progress to MII”, the “meiotic resumption of GV-arrested oocytes” value (GV oocytes; oocytes held at GV stage with phosphodiesterase inhibitors, TPEN treatment) is reported as “premature GV breakdown (GVBD) and meiotic progression; also recorded: premature meiotic progression and GV breakdown (GVBD)” and the “MAPK activity (MBP kinase) in MII eggs” value (MAPK) is reported as “did not change appreciably”. The “activation of MII-arrested eggs by zinc sequestration with TPEN” value (MII eggs) was “causes egg activation and resumption of cell cycle; also recorded: induce egg activation and embryo development”, the CCNB1 protein levels (CCNB1) was “low” and the “MPF activity (histone H1 kinase) in MII eggs” value (MPF activity; in vivo ovulated MII eggs, KSOM with 10 μM TPEN, 1 to 8 hours, seen as soon as 1 hour) was “decline”. The “MPF activity (histone H1 kinase)” value (MPF activity; oocytes cultured with 10 μM TPEN during the MI-MII transition (7.5 h control, 6.5 h TPEN)) was “low”, the “TPEN-like (telophase-I arrest-like) spindle phenotype” value (oocytes; [1]) was 31% and the “normal MII spindle” value (oocytes; [1]) was “failed to form MII spindles and none”. For the same molecule, the “other (>2 chr. masses) spindle phenotype” value (oocytes; [1]) was 19%, the “partial TPEN-like (chromatin mass) spindle phenotype” value (“partial TPEN-like” for short) (oocytes; [1]) was 54% and the “TPEN-like (telophase-I arrest-like) spindle phenotype” value (oocytes; [2]) was 31%. For the same molecule, the “normal MII spindle” value (oocytes; [2]) was 0%, the “partial TPEN-like” value (oocytes; [2]) was 54% and the “TPEN-like (telophase-I arrest-like) spindle phenotype” value (oocytes; TPEN 14 h IVM, n=34) was 91%. For the same molecule, the “normal MII spindle” value (oocytes; TPEN 14 h IVM, n=34) was 0%, the “other (>2 chr. masses) spindle phenotype” value (oocytes; TPEN 14 h IVM, n=34) was 6% and the “partial TPEN-like” value (oocytes; TPEN 14 h IVM, n=34) was 3%.
